Test results published in patent US5859037A, “Sulfonylurea-glitazone combinations for diabetes” (Warner-Lambert Company, priority 1997, dated 1999).

Columns and labels:
Type in all cases: in vivo, patients
[1] = test system: non-insulin dependent diabetes mellitus (NIDDM); assay: Glycemic control (FSG, HbA1c, responders) in 52-week double-blind clinical study; conditions: for Fasting Serum Glucose, Adjusted Mean Change From Baseline (SE) / Hemoglobin A1c, Adjusted Mean Change From Baseline (SE): glyburide monotherapy (active control)
Text: The method of treating diabetes employing a combination of a sulfonylurea and a glitazone has been established in a long-term controlled clinical evaluation. The study determined the efficacy and safety of troglitazone alone and in combination with the sulfonylurea glyburide for the treatment of non-insulin dependent diabetes mellitus (NIDDM). This study targeted the segment of the NIDDM population in which the disease state has progressed to a point where maximum doses of sulfonylureas no longer produce adequate glycemic control. […] Since the unstimulated (absence of sulfonylurea) insulin secretory capacity of the beta cells is very low in this population, reversing insulin resistance alone would be of partial benefit. Therefore, maintaining a level of stimulated insulin secretion with a sulfonylurea while adding troglitazone to improve insulin sensitivity could provide a level of glycemic control unattainable by either medication alone. […] Long-term safety was also an objective of this study, assessed by adverse events and clinical laboratory data. This was a 12-month, double-blind, randomized, parallel-group, active-control, multicenter study design (FIG. 1). […] The primary efficacy parameters included endpoints related to glucose homeostasis: FSG and HbA1c. The change from baseline in these parameters at Week 52 compared to active control (glyburide) was the primary measure of efficacy. For patients terminating early from the study, their last observation was carried forward (LOCF) to Week 52. A decrease in these parameters was indicative of an improvement in glycemic control. Efficacy analysis was performed on 2 patient populations, intent-to-treat and completers. […] Patients withdrawing from the study before Week 52 were included in the analysis using the LOCF procedure; the last measurement on treatment was substituted for the missing Week 52 measurement. The intent-to-treat patient sample was the primary sample for assessing efficacy. Completers comprised patients in the intent-to-treat sample who completed Week 52. The analysis of change from baseline to Week 52 was performed using analysis of covariance (ANCOVA). The primary model included effects due to treatment and center and baseline as covariate. Treatment-by-baseline and treatment-by-center interactions were also examined in supplemental models. For the primary comparisons of glyburide versus each combination, step-down tests for linear trend in dose response were performed based on the primary model. For the remaining primary pairwise comparisons of glyburide versus each monotherapy, t-tests were performed using the MSE from the analysis of covariance (with a Bonferroni-Holm adjustment). For all comparisons with glyburide, 95 confidence intervals are provided using Dunnett's test. […] For each patient, the baseline measurement for a given parameter was defined as the measurement at Week 0. […] The frequency distribution (number and percentage) of responders were provided by treatment group and visit. For the set of primary treatment comparisons concerning glyburide versus combination therapy, step-down comparisons of responders in each treatment group versus the glyburide group were performed by sequential application of the Cochran-Mantel-Haenszel (CMH) test for linear trend with study centers as strata. […] The CMH test for general association were also used to perform the secondary treatment comparisons as supplemental analysis.

[2] = test system: non-insulin dependent diabetes mellitus (NIDDM); assay: Patient disposition (withdrawal, completion); conditions: glyburide monotherapy
Text: This was a 12-month, double-blind, randomized, parallel-group, active-control, multicenter study design (FIG. 1). […] Patients could withdraw voluntarily at any time during the study or be withdrawn by the investigator because of significant adverse events or deterioration in health, poor compliance, pregnancy, or prolonged symptomatic hyperglycemia or persistent worsening or failure to improve glycemic control as monitored by FSG.

[3] = test system: total insulin and C-peptide; assay: Fasting total insulin and C-peptide in 52-week clinical study; conditions: ITT, Week 52; glyburide monotherapy (active control)
Protocol: This was a 12-month, double-blind, randomized, parallel-group, active-control, multicenter study design (FIG. 1). […] Secondary efficacy parameters included markers of glycemic homeostasis (insulin and C-peptide) and markers of lipid metabolism (total cholesterol, total triglycerides, HDL, VLDL, LDL (measured), free fatty acids, Lp(a), Apo A1, and Apo B). Efficacy analysis was performed on 2 patient populations, intent-to-treat and completers. […] Patients withdrawing from the study before Week 52 were included in the analysis using the LOCF procedure; the last measurement on treatment was substituted for the missing Week 52 measurement. The intent-to-treat patient sample was the primary sample for assessing efficacy. Completers comprised patients in the intent-to-treat sample who completed Week 52. The analysis of change from baseline to Week 52 was performed using analysis of covariance (ANCOVA). The primary model included effects due to treatment and center and baseline as covariate. Treatment-by-baseline and treatment-by-center interactions were also examined in supplemental models.

[4] = Body weight in clinical study; conditions: Month 12
Text: This was a 12-month, double-blind, randomized, parallel-group, active-control, multicenter study design (FIG. 1). […] Patients were instructed to fast overnight prior to visits requiring specimen collection.

[5] = ITT, Week 52, glyburide (active control)

COc1ccc(Cl)cc1C(=O)NCCc1ccc(S(=O)(=O)NC(=O)NC2CCCCC2)cc1 [Glyburide]
Fasting Serum Glucose, Adjusted Mean Change From Baseline (SE) ([1]; Completers, Week 52): 13.1 (8.6) mg/dL
Hemoglobin A1c, Adjusted Mean Change From Baseline (SE) ([1]; Completers, Week 52): 0.78 (0.27) %
Fasting Serum Glucose, Adjusted Mean Change From Baseline (SE) ([1]; ITT, Week 52 (Month 12)): 22.7 (6.9) mg/dL
≥30 mg/dL Reduction in FSG, Responders, N (%) [1, 5]: 10 (13) N (%)
≥1% Reduction in HbA1c, Responders, N (%) [1, 5]: 4 (5) N (%)
Hemoglobin A1c, Adjusted Mean Change From Baseline (SE) ([1]; ITT, Week 52): 0.90 (0.20) %
Hemoglobin A1c, Adjusted Mean Change From Baseline (SE) ([1]; ITT, Week 52, listed as glyburide): 0.90%
patients with HbA1c of ≤7% ([1]; Week 52, glyburide monotherapy): 1%
patients with HbA1c of ≤8% ([1]; end of study, glyburide (active control)): 10%
Withdrawn, Adverse Event, Number (%) of Patients [2]: 6 (7.6) Number (%) of Patients
Withdrawn, Lack of Efficacy, Number (%) of Patients [2]: 20 (25.3) Number (%) of Patients
withdrawal for lack of efficacy [2]: Twenty-five
C-Peptide, Adjusted Mean Change From Baseline (SE) [3]: -0.67 (0.07) ng/mL
Total Insulin, Adjusted Mean Change From Baseline (SE) [3]: -1.45 (1.39) μIU/mL
Body weight, Adjusted Mean Change From Baseline (SE) ([4]; ITT, glyburide (active control)): -1.3 lbs
mean decrease in body weight from baseline ([4]; monotherapy (troglitazone: range over doses)): 1 lbs
